Read-outs that look alike come from different tables or passages of the source.
Legend:
Zymoseptoria tritici = assay: Leaf Blotch of Wheat (SEPTTR) disease control on wheat seedlings; assay type: in vivo; settings: for pest or weed control at 121.5 g/ha: Low Volume (121.5 g/H); for pest or weed control at 100 µg/mL: High Volume (100 ppm)
Description: Example A: Evaluation of Fungicidal Activity: Leaf Blotch of Wheat (Mycosphaerella graminicola; Anamorph: Zymoseptoria tritici; Bayer code […]) Technical grades of materials were dissolved in acetone, which were then mixed with nine volumes of water containing 110 ppm Triton X-100. The fungicide solutions were applied onto wheat seedlings using an automated booth sprayer to run-off. All sprayed plants were allowed to air dry prior to further handling. All fungicides were evaluated using the aforementioned method for their activity vs. all target diseases, unless stated otherwise. Wheat leaf blotch and brown rust activity were also evaluated using track spray applications, in which case the fungicides were formulated as EC formulations, containing 0.1% Trycol 5941 in the spray solutions. Wheat plants (variety Yuma) were grown from seed in a greenhouse in 50% mineral soil/50% soil-less Metro mix until the first leaf was fully emerged, with 7-10 seedlings per pot. These plants were inoculated with an aqueous spore suspension of Septoria tritici either prior to or after fungicide treatments. After inoculation the plants were kept in 100% relative humidity (one day in a dark dew chamber followed by two to three days in a lighted dew chamber at 20° C.) to permit spores to germinate and infect the leaf. The plants were then transferred to a greenhouse set at 20° C. for disease to develop. When disease symptoms were fully expressed on the 1st leaves of untreated plants, infection levels were assessed on a scale of 0 to 100 percent disease severity. Percent disease control was calculated using the ratio of disease severity on treated plants relative to untreated plants.

Puccinia triticina = assay: Wheat Brown Rust (PUCCRT) disease control on wheat seedlings; assay type: in vivo; settings: for pest or weed control at 121.5 g/ha: Low Volume (121.5 g/H); for pest or weed control at 100 µg/mL: High Volume (100 ppm)
Description: Technical grades of materials were dissolved in acetone, which were then mixed with nine volumes of water containing 110 ppm Triton X-100. The fungicide solutions were applied onto wheat seedlings using an automated booth sprayer to run-off. All sprayed plants were allowed to air dry prior to further handling. All fungicides were evaluated using the aforementioned method for their activity vs. all target diseases, unless stated otherwise. Wheat leaf blotch and brown rust activity were also evaluated using track spray applications, in which case the fungicides were formulated as EC formulations, containing 0.1% Trycol 5941 in the spray solutions. Wheat plants (variety Yuma) were grown from seed in a greenhouse in 50% mineral soil/50% soil-less Metro mix until the first leaf was fully emerged, with 7-10 seedlings per pot. These plants were inoculated with an aqueous spore suspension of Septoria tritici either prior to or after fungicide treatments. After inoculation the plants were kept in 100% relative humidity (one day in a dark dew chamber followed by two to three days in a lighted dew chamber at 20° C.) to permit spores to germinate and infect the leaf. The plants were then transferred to a greenhouse set at 20° C. for disease to develop. When disease symptoms were fully expressed on the 1st leaves of untreated plants, infection levels were assessed on a scale of 0 to 100 percent disease severity. Percent disease control was calculated using the ratio of disease severity on treated plants relative to untreated plants. Example B: Evaluation of Fungicidal Activity: Wheat Brown Rust (Puccinia triticina; Synonym: Puccinia recondita f. sp. tritici; Bayer code PUCCRT) Wheat plants (variety Yuma) were grown from seed in a greenhouse in 50% mineral soil/50% soil-less Metro mix until the first leaf was fully emerged, with 7-10 seedlings per pot. These plants were inoculated with an aqueous spore suspension of Puccinia triticina either prior to or after fungicide treatments. After inoculation the plants were kept in a dark dew room at 22° C. with 100% relative humidity overnight to permit spores to germinate and infect the leaf. The plants were then transferred to a greenhouse set at 24° C. for disease to develop. Fungicide formulation, application and disease assessment followed the procedures as described in the Example A.

[1] = 24 h, 1 Day Protectant, read-out: SEPTTR disease control, 1 DP
[2] = 72 h, 3 Day Curative, read-out: SEPTTR disease control, 3 DC
[3] = 24 h, 1 Day Protectant, read-out: PUCCRT disease control, 1 DP
[4] = 72 h, 3 Day Curative, read-out: PUCCRT disease control, 3 DC

Row | SMILES | pest or weed control at 121.5 g/ha (Zymoseptoria tritici; [1]) [%] | pest or weed control at 121.5 g/ha (Zymoseptoria tritici; [2]) [%] | pest or weed control at 121.5 g/ha (Puccinia triticina; [3]) [%] | pest or weed control at 121.5 g/ha (Puccinia triticina; [4]) [%] | pest or weed control at 100 µg/mL (Zymoseptoria tritici; [1]) [%] | pest or weed control at 100 µg/mL (Zymoseptoria tritici; [2]) [%] | pest or weed control at 100 µg/mL (Puccinia triticina; [3]) [%] | pest or weed control at 100 µg/mL (Puccinia triticina; [4]) [%]
1 | CCCC[C@H]1[C@H](C)OC(=O)[C@@H](NC(=O)c2nccc(OC)c2OCOC(C)=O)CCO[C@@H]1COc1ccccc1 [Compound 35] | > 70 | > 70 | > 70 | > 70 | – | – | – | –
2 | COc1ccnc(C(=O)N[C@H]2CCOC[C@@H](Cc3ccccc3-c3ccccc3)[C@H](C)OC2=O)c1OC(C)=O [Compound 11] | > 70 | < 70 | > 70 | > 70 | – | – | – | –
3 | CCCC[C@H]1[C@H](C)OC(=O)[C@@H](NC(=O)c2nccc(OC)c2OCOC(C)=O)CCO[C@@H]1COC(=O)C(C)C [Compound 32] | > 70 | > 70 | > 70 | > 70 | – | – | – | –
4 | COc1ccnc(C(=O)N[C@H]2CCOC[C@@H](Cc3ccc(F)cc3)[C@H](C)OC2=O)c1OC(C)=O [Compound 5] | > 70 | < 70 | > 70 | > 70 | – | – | – | –
5 | CC[C@H]1OCC[C@H](NC(=O)c2nccc(OC)c2OCOC(C)=O)C(=O)O[C@@H](C)[C@@H]1Cc1ccc(F)cc1 [Compound 22] | > 70 | > 70 | > 70 | > 70 | – | – | – | –
6 | CCCC[C@H]1OCC[C@H](NC(=O)c2nccc(OC)c2O)C(=O)O[C@@H](C)[C@@H]1Cc1ccc(F)cc1 [Compound 56] | – | – | – | – | < 70 | > 70 | > 70 | > 70
7 | COCC[C@H]1OCC[C@H](NC(=O)c2nccc(OC)c2OCOC(C)=O)C(=O)O[C@@H](C)[C@@H]1Cc1ccc(F)cc1 [Compound 25] | < 70 | < 70 | > 70 | > 70 | – | – | – | –
8 | CCCC[C@H]1[C@H](C)OC(=O)[C@@H](NC(=O)c2nccc(OC)c2OC(C)=O)CCO[C@@H]1COc1ccccc1 [Compound 15] | > 70 | > 70 | > 70 | > 70 | – | – | – | –
9 | CCCC[C@H]1OCC[C@H](NC(=O)c2nccc(OC)c2OCOC(C)=O)C(=O)O[C@@H](C)[C@@H]1Cc1ccccc1 [Compound 18] | > 70 | > 70 | > 70 | > 70 | – | – | – | –
10 | COc1ccnc(C(=O)N[C@H]2CCOC[C@@H](Cc3ccccc3-c3ccccc3)[C@H](C)OC2=O)c1OCOC(C)=O [Compound 28] | > 70 | > 70 | > 70 | > 70 | – | – | – | –
11 | COCC[C@H]1OCC[C@H](NC(=O)c2nccc(OC)c2OC(C)=O)C(=O)O[C@@H](C)[C@@H]1Cc1ccccc1 [Compound 4] | > 70 | > 70 | > 70 | > 70 | – | – | – | –
12 | COc1ccnc(C(=O)N[C@H]2CCOC[C@@H](Cc3ccccc3)[C@H](C)OC2=O)c1OC(C)=O [Compound 1] | > 70 | > 70 | > 70 | > 70 | – | – | – | –
